The values below come from US7867522B2, “Method of wound/burn healing using copper-zinc compositions” (JR Chem, LLC, priority 2006, dated 2011).

Common to all, as to assay type: in vivo, human
Experiment [1] has as its system bee sting characterized by pain and swelling. As to the kind of experiment: topical treatment of a bee sting. Conditions: child; liquid composition containing 0.05% active ingredient, four times a day for 2 days. The source says:
A child is suffering from a bee sting characterized by pain and swelling. A liquid composition suitable for treatment of skin containing 0.05% copper-zinc malonate active ingredient is applied to the sting four times a day for 2 days.

For the next experiment, the system named is open soars on their feet. As to the kind of experiment: topical treatment of open sores on the feet. Conditions: person, composition applied to the wound twice a day for 10 days. The source says:
A person is suffering from open soars on their feet. A composition containing copper-zinc malonate is applied to the wound twice a day for 10 days. Healing time is reduced.

For experiment [2], the system named is 6 inch laceration to their right forearm. As to the kind of experiment: topical treatment of a forearm laceration. Conditions: person; emulsion composition applied three times a day for 1 week. The source says: A person is suffering from 6 inch laceration to their right forearm. An emulsion composition suitable for treatment of skin containing an effective amount of copper-zinc malonate active ingredient is applied to their laceration three times a day for 1 week.

The subject of experiment [3] is third degree burns on their left wrist and stomach. As to the kind of experiment: topical treatment of third degree burns. Conditions: person; liquid composition applied four times a day for 1 month. From the text:
A person truck accident victim is suffering from third degree burns on their left wrist and stomach. A liquid composition suitable for treatment of skin containing an effective amount of copper-zinc malonate active ingredient is applied to the third degree burn four times a day for 1 month.

Another experiment deals with pressure ulcer. As to the kind of experiment: topical treatment of pressure ulcers in a diabetic patient. From the text: A diabetic is suffering from a stage I pressure ulcer characterized by non-blanchable erythema on intact skin. A gel composition suitable for treatment of skin containing an effective amount of copper-zinc malonate active ingredient is routinely applied to the stage I pressure ulcer twice daily.
A diabetic is suffering from a stage II pressure ulcer characterized by partial skin loss involving the epidermis, dermis, or both. The lesion is superficial and presents clinically as a shallow center. A liquid composition suitable for treatment of skin containing an effective amount of copper-zinc malonate active ingredient is applied to the shallow center four times a day for 2 months.
A diabetic is suffering from a stage III pressure ulcer characterized by full thickness skin loss involving damage or necrosis of subcutaneous tissue that extends down to, but not through, underlying fascia. The sore presents clinically as a deep crater. A liquid composition suitable for treatment of skin containing an effective amount of one or more copper-zinc malonate active ingredients is applied to the crater four times a day for 1 month.
A diabetic is suffering from a stage IV pressure ulcer characterized by full thickness skin loss with extensive destruction, and tissue necrosis. A liquid composition suitable for treatment of skin containing an effective amount of copper-zinc malonate active ingredient is applied to the dying tissue four times a day for 1 month.

Setting [4] is: liquid composition applied four times a day for 1 month.

With copper-zinc malonate, the bee sting entry in experiment [1] is on record as “reduced or eliminated”. The healing time result in the experiment on open soars on their feet is “reduced”. Besides, the “healing and time necessary for the wound to close” value in experiment [2] was “promotes healing and decreases the time necessary for the wound to close”. Further, in experiment [3], the “burnt wrist and stomach, healing time” value is “improve, and healing time is reduced”. In the experiment on pressure ulcer (gel composition applied twice daily), the “stage I pressure ulcer” value is on record as “reduced or eliminated”. Further, in the experiment with pressure ulcer (setting [4]), the “stage III pressure ulcer” value is listed as “reduced or eliminated” and the “stage IV pressure ulcer” value is listed as “reduced or eliminated”. For the same substance, the “stage II pressure ulcer” value in the experiment with pressure ulcer (liquid composition applied four times a day for 2 months) is “reduced or eliminated”.
